The results in this text go back to US20230130766A1 (SALK INSTITUTE FOR BIOLOGICAL STUDIES, priority 2020, published 2023).

Some results are limits rather than exact numbers.

The assay has as its target T1, ULK1 (Homo sapiens, UniProt O75385).
T1 sequence (O75385 1-1050): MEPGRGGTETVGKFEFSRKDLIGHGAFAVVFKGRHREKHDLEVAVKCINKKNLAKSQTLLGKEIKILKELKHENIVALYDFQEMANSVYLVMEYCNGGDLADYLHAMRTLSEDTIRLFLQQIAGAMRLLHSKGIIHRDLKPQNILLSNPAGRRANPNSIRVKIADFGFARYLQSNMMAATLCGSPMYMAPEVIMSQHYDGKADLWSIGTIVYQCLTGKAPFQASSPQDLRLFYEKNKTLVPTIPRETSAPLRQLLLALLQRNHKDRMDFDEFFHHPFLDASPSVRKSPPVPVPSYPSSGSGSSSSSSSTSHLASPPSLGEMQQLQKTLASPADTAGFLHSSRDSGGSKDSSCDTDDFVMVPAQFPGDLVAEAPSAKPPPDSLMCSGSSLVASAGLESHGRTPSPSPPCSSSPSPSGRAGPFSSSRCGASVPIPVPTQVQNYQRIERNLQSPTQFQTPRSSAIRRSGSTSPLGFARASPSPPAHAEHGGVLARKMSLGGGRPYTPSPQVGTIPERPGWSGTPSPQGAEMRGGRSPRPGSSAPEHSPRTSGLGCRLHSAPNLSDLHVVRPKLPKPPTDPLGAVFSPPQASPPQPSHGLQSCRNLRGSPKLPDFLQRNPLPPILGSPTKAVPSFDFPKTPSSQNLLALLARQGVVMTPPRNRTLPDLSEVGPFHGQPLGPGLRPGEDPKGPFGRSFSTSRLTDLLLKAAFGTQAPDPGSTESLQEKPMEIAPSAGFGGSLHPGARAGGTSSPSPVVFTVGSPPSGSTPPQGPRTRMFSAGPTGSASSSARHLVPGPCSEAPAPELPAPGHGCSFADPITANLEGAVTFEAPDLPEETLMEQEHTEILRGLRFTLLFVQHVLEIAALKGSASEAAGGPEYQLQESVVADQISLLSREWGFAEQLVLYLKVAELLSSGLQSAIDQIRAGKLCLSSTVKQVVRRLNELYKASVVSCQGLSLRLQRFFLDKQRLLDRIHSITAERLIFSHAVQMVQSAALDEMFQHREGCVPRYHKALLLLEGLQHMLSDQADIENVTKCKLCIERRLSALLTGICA
The assay is described as follows: ULK1 inhibition assay. Format: biochemical. The conditions noted are these: * = tested as a mixture of regioisomers.
A word on the IC50: it is the concentration at which inhibition is half-maximal. Take `O=C1CCc2cc(Nc3ncc(C(F)(F)F)c(OC4COC4)n3)ccc2N1` [Compound 231a]: the half-maximal inhibitory concentration (IC50) is under 0.2 µM.

Regarding `FC(F)(F)c1cnc(Nc2ccc(-n3cccc3)cc2)nc1Nc1ccc2c(c1)OCO2` [139*], the IC50 was under 0.2 µM.

Regarding `COc1cc(Nc2nc(-n3nnc4ccccc43)ncc2Br)cc(OC)c1OC` [Compound 331b], the IC50 is 0.2 to 2 µM.

Consider `COc1ccc(Nc2nc(Nc3cc(OC)c(OC)c(OC)c3)ncc2C(F)(F)F)cn1` [Compound 37], for which the IC50 was under 0.2 µM. `CC(=O)NNc1nc(Nc2ccc3c(c2)CCC(=O)N3)ncc1C(F)(F)F` [Compound 350]: the IC50 was over 2 µM.

`CNC(=O)c1ccccc1Oc1nc(Nc2ccc(Cl)c(Cl)c2)ncc1C(F)(F)F` [Compound 108a]: the IC50 was over 2 µM.

Turning to `CNC(=O)c1ccccc1Nc1nc(Nc2cc(OC)ccc2C)ncc1Br` [Compound 17], the half-inhibitory concentration (IC50) was under 0.2 µM.

For the compound `O=C1CCc2cc(Nc3ncc(C(F)(F)F)c(OCc4ccccc4)n3)ccc2N1` [Compound 81], the IC50 is under 0.2 µM. To `CNC(=O)c1ccccc1Nc1nc(Nc2ccc3c(c2)OCCO3)ncc1Cl` [Compound 51] belongs under 0.2 µM; to `FC(F)(F)c1cnc(Nc2cnc3[nH]ccc3c2)nc1NC1COC1` [Compound 194], under 0.2 µM; to `FC(F)(F)c1cnc(Nc2ccc(Nc3ncc(C(F)(F)F)c(NC4CC4)n3)cc2)nc1NC1CC1` [Compound 304b], over 2 µM.

With `COc1cc(Nc2ncc(Br)c(Oc3cccc4ccncc34)n2)cc(OC)c1OC` [Compound 351], the IC50 was over 2 µM. The value for `FC(F)(F)c1cnc(Nc2ccc3c(c2)OCCCO3)nc1NC1CC1` [Compound 190] was under 0.2 µM; that for `CNC(=O)c1cccc(OC)c1Oc1nc(Nc2cc(OC)c(OC)c(OC)c2)ncc1Br` [Compound 252] was under 0.2 µM. The value for `N=c1ccon1-c1ncc(C(F)(F)F)c(NC2CC2)n1` [Compound 214b] was over 2 µM; that for `O=C1CCc2cc(Nc3ncc(C(F)(F)F)c(NC4Cc5ccccc5C4)n3)ccc2N1` [Compound 130a] was under 0.2 µM; that for `O=C1CCc2cc(Nc3ncc(C(F)(F)F)c(Nc4ccccc4)n3)ccc2N1` [157*] was under 0.2 µM. Consider `O=C1CCc2cc(Nc3nc(NC4CC4)c4ccccc4n3)ccc2N1` [Compound 263], for which the IC50 is over 2 µM. As to `CNC(=O)c1ccccc1Nc1nc(Nc2cc(OC)ccc2C)ncc1Cl` [Compound 16], the IC50 is under 0.2 µM. To `O=C1CCc2cc(Nc3ncc(C(F)(F)F)c(/C=C/c4ccccc4)n3)ccc2N1` [Compound 69] belongs under 0.2 µM; to `NCCCNc1nc(Nc2ccc3c(c2)CCC(=O)N3)ncc1C(F)(F)F` [Compound 313], under 0.2 µM. Consider `O=C1Cc2cc(Nc3ncc(C(F)(F)F)c(NC4CC4)n3)ccc2N1` [Compound 240], for which the IC50 was under 0.2 µM. To `FC(F)(F)c1cnc(Nc2ccc3c(c2)OCO3)nc1Nc1ccc2c(c1)OCO2` [Compound 124c] belongs under 0.2 µM; to `COc1cc(Nc2ncc(Br)c(Oc3cccc4c3CCCC4)n2)cc(OC)c1OC` [Compound 330a], over 2 µM. To `O=C1CCc2cc(Nc3ncc(C(F)(F)F)c(Oc4ccccc4)n3)ccc2N1` [Compound 300a] belongs over 2 µM; to `COc1cc(Nc2nc(Oc3cccc4c3N(C(C)=O)CCC4)ncc2Br)cc(OC)c1OC` [Compound 335b], under 0.2 µM; to `O=C1CCc2cc(Nc3ncc(C(F)(F)F)c(O)n3)ccc2N1` [Compound 231b], over 2 µM. To `COc1cc(Nc2ncc(Br)c(Oc3ccccc3CN(C)C)n2)cc(OC)c1OC` [Compound 283] belongs over 2 µM; to `CNC(=O)c1cccc(Nc2nc(Nc3ccc4c(c3)CCC(=O)N4)ncc2C(F)(F)F)c1` [Compound 128], under 0.2 µM. Regarding `Nc1nc(N(C(=O)C2CC2)c2ccc3c(c2)CCC(=O)N3)ncc1C(F)(F)F` [Compound 358], the 50% inhibitory concentration (IC50) is over 2 µM. The value for `CNC(=O)c1ccccc1Oc1nc(Nc2ccc(C)c(Br)c2)ncc1C(F)(F)F` [Compound 102] was over 2 µM; that for `CNC(=O)c1ccccc1Oc1nc(Nc2cc(OC)ccc2C)ncc1Br` [Compound 170] was over 2 µM. The value for `COC(=O)[C@@H]1CCCN1c1nc(Nc2ccc3c(c2)CCC(=O)N3)ncc1C(F)(F)F` [Compound 227] was 0.2 to 2 µM; that for `COc1ccc(Nc2nc(Nc3ccc(N4CCOCC4)cc3OC)ncc2Cl)cn1` [Compound 27] was over 2 µM; that for `O=C1CCc2cc(Nc3ncc(C(F)(F)F)c(OC4CCC4)n3)ccc2N1` [Compound 175] was under 0.2 µM. To `O=C1CCc2cc(Nc3ncc(C(F)(F)F)c(Nc4nccs4)n3)ccc2N1` [Compound 58] belongs over 2 µM.

Turning to `O=C1CCc2cc(Nc3ncc(C(F)(F)F)c(Nc4ccc5c(c4)CCC(=O)N5)n3)ccc2N1` [Compound 120c], the 50% inhibitory concentration (IC50) is under 0.2 µM.

Take `Clc1cnc(Nc2ccccc2)nc1Nc1ccccc1` [Compound 114]: the IC50 is over 2 µM. For the compound `CNC(=O)c1cccc(Oc2nc(Nc3cc(OC)c(OC)c(OC)c3)ncc2Br)c1` [Compound 242], the IC50 was in the range of 0.2 to 2 µM. To `COc1cc(Nc2ncc(Br)c(Oc3ccccc3N)n2)cc(OC)c1OC` [Compound 254b] belongs under 0.2 µM; to `O=C1CCc2cc(Nc3ncc(C(F)(F)F)c(Nc4ccc5[nH]ncc5c4)n3)ccc2N1` [Compound 185], under 0.2 µM.

For the compound `COc1cccc(Nc2nc(Nc3ccc4c(c3)OCCO4)ncc2C(F)(F)F)c1` [Compound 133], the 50% inhibitory concentration (IC50) was under 0.2 µM.

With `COc1ccc(C)c(Nc2ncc(C(F)(F)F)c(NCc3cccc(S(C)(=O)=O)c3)n2)c1` [Compound 50], the 50% inhibitory concentration (IC50) is over 2 µM. As to `Brc1cnc(Nc2cnc3[nH]ccc3c2)nc1NC1CC1` [Compound 174], the concentration for half-maximal inhibition (IC50) is under 0.2 µM. To `CNC(=O)c1ccccc1Nc1nc(Nc2ccc3c(c2)CC(=O)N3)ncc1Cl` [Compound 21] belongs under 0.2 µM. On to `COc1cccc(Nc2ncc(C(F)(F)F)c(O)n2)c1OC` [Compound 115b], for which the half-maximal inhibitory concentration (IC50) was over 2 µM.

As to `FC(F)(F)c1cnc(NC2CC2)nc1NC1CC1` [Compound 169], the IC50 was over 2 µM. To `COc1cc(Nc2ncc(Br)c(NC3CC3)n2)cc(OC)c1OC` [Compound 186] belongs under 0.2 µM; to `CC(C)(C)OC(=O)NCCCNc1nc(Nc2ccc3c(c2)CCC(=O)N3)ncc1C(F)(F)F` [Compound 310], under 0.2 µM; to `O=C1CCc2cc(Nc3ncc(C(F)(F)F)c(SCc4ccccc4)n3)ccc2N1` [Compound 62], under 0.2 µM.

Turning to `FC(F)(F)c1cnc(Nc2ccc3c(c2)OCO3)nc1NC1Cc2ccccc2C1` [Compound 163b], the half-maximal inhibitory concentration (IC50) is over 2 µM.

As to `COc1cc(Nc2ncc(Cl)c(N(C)C(=O)c3ccccc3O)n2)cc(OC)c1OC` [Compound 234b], the IC50 fell in the range of 0.2 to 2 µM. To `CNC(=O)c1ccccc1Nc1nc(Nc2ccc3[nH]ccc3c2)ncc1Br` [Compound 23] belongs under 0.2 µM.

With `FC(F)(F)c1cnc(Nc2ccc3c(c2)OCO3)nc1N1CCC1` [Compound 166b], the half-maximal inhibitory concentration (IC50) was under 0.2 µM. Consider `COc1cc(Nc2ncc(Br)c(Nc3ccccc3CO)n2)cc(OC)c1OC` [Compound 303], for which the IC50 is under 0.2 µM. `O=C1CCc2cc(Nc3nc(NC4CC4)ncc3C(F)(F)F)ccc2N1` [Compound 131b]: the IC50 is under 0.2 µM. As to `CCONc1nc(Nc2ccc3c(c2)CCC(=O)N3)ncc1C(F)(F)F` [Compound 219], the IC50 was over 2 µM. Take `O=C1CCc2cc(Nc3ncc(C(F)(F)F)c(Nc4ccc5c(c4)OC(F)(F)O5)n3)ccc2N1` [Compound 178a]: the half-inhibitory concentration (IC50) was under 0.2 µM. With `O=C1CCc2cc(Nc3ncc(C(F)(F)F)c(OCCN4CCOC4=O)n3)ccc2N1` [Compound 357], the IC50 was in the range of 0.2 to 2 µM. To `CNC(=O)c1ccccc1Nc1nc(Nc2cc(N3CCOCC3)cc(N3CCOCC3)c2)ncc1C(F)(F)F` [Compound 90] belongs under 0.2 µM. To `FC(F)(F)c1cnc(Nc2cnc3[nH]ccc3c2)nc1NC1CCC1` [Compound 161a] belongs under 0.2 µM; to `CC1(Nc2nc(Nc3ccc4c(c3)CCC(=O)N4)ncc2C(F)(F)F)COC1` [Compound 220a], over 2 µM; to `O=C1CCc2cc(Nc3ncc(C(F)(F)F)c(Nc4ccccc4N4CCOCC4)n3)ccc2N1` [Compound 118a], under 0.2 µM.

On to `C[C@@H]1COCCN1c1nc(Nc2ccc3c(c2)CCC(=O)N3)ncc1C(F)(F)F` [Compound 247], for which the IC50 was under 0.2 µM. To `CNC(=O)c1ccccc1Nc1nc(Nc2cc(OC)c(OC)c(OC)c2)ncc1/C=C/c1ccccc1` [Compound 71] belongs under 0.2 µM.
